From ChEMBL document CHEMBL1131834, “Synthesis and antitumoral activities of marine ent-chromazonarol and related compounds” (Bioorg Med Chem Lett, 1999) come the findings set out here.

The structures appear in SMILES notation.

Format in all cases: functional, cell-based
Assay [1] deals with P388. The experiment in a line: Antitumoral activity was assayed against P-388 cell line. The following applies: Mus musculus.
Assay [2] deals with SK-MEL-28. The experiment in a line: Antitumoral activity was assayed against MEL-28 cell line. The following applies: Homo sapiens.
The subject of assay [3] is A549. The experiment in a line: Antitumoral activity was assayed against A-549 cell line. The conditions noted are these: Homo sapiens.
Assay [4] concerns HT-29. The experiment in a line: Antitumoral activity was assayed against HT-29 cell line. The conditions noted are these: Homo sapiens.

The IC50 is the concentration needed to halve the response being measured. A lower IC50 goes with inhibition by little substance. `CC1(C)CCC[C@@]2(C)C1CC[C@@]1(C)Oc3ccc(O)cc3C[C@@H]12` (some centres not stated): the IC50 in assay [1], in assay [2], in assay [3] and in assay [4] was 15.9 µM each time.
For `CC1=CCC2C(C)(C)CCC[C@]2(C)[C@H]1Cc1cc(O)ccc1O` (some centres not stated), the IC50 in assay [1] came to 0.16 µM; in assay [2], 0.79 µM; in assay [3], 0.79 µM; in assay [4], 0.79 µM.
Turning to `CC1=CCC2C(C)(C)CCC[C@]2(C)[C@H]1CC1=CC(=O)C=CC1=O` (some centres not stated), the IC50 in assay [1] stood at 0.8 µM; in assay [2] it was 3.2 µM; in assay [3], 3.2 µM; in assay [4], 3.2 µM.
